Measured values published in patent US7838645B2, “Function of autophagy genes in cell death” (University of Maryland College Park, priority 2004, dated 2010).
Where a SMILES comes first, the peptide text is derived from it. The star is where a group is joined. Cbz = O=C(OCc1ccccc1)*; CH2Cl = ClC*; CH2F = FC*

Legend:
L929 cells [1] = assay: Cell death analysis (propidium iodide staining, flow cytometry) in L929 cells; type: cell-based, mouse; settings: for Induction of cell death (% cell loss): 40 hours, FIG. 9
Protocol: (§1) Cell viability was determined after treatments by staining with propidium iodide (2 μg/mL) and flow cytometric analysis on a FACScan. Percent cell death was quantitated as previously described (26).
In mouse L929 fibroblastic cells, tumor necrosis factor (TNF), oxidants, ceramide, and radiation can induce caspase-independent death (11). […] L929 cells were treated with 1 ul of dimethyl sulfoxide (DMSO) FIG. 1A (a and c) or 20 uM zVAD (b and d) for 24 hours and examined by phase contrast microscopy (a and b); or 4′,6′-diamidino-2-phenylindole-staining and fluorescent microscopy (c and d). Magnification: 200×. […] The percentage of vaculated cells is the fraction of cells that have 10 or more autophagic vacuoles by TEM. Statistical analysis is shown in FIG. 4 and morphometric analysis of zVAD-induced autophagy in L929 cells is quantitated in Table 1 setforth below. […]
L929 cells were treated with 1 ul/ml DMSO, 20 uM zVAD, 20 uM zFA, 20 uM LEHD, 20 uM DEVD, or 20 uM zAAD for 40 hours, and % cell loss was quantified by flow cytometry. […] Because zVAD is a potent inhibitor of caspase-8, it likely exerted its death effect through inhibition of caspase-8.

RIP = RIP cleavage by caspase-8 (Western blot, FIG. 11); type: cell-based; settings: cells treated with zVAD
Text: It was observed that the signaling through the serine-threonine kinase RIP is essential for autophagic cell death. When RIP is cleaved and inactivated by caspase 8, then a mechanism is provided for the prevention of autophagic cell death. However, inhibition of caspase 8 allows RIP to transmit the signal needed to kill the cell through the autophagic pathway. […] Clearly, zVAD treatment prevents RIP from constitutive caspase-8 cleavage. The indicated band is the 42 kD proteolytic product that is characteristic of caspase-8 cleavage (1).

RAW264.7 cells = assay: Cell loss by flow cytometry in RAW264.7 cells; type: cell-based, mouse; settings: FIG. 6
Protocol: as §1
(§2) The RAW264.7 cells were treated with 0.1 ug/ml Wortmannin (WM) or 10 mM 3-methyladenine (3-MA) for 1 hr and the with 100 uM zVAD for 48 hrs, after which cell loss was quantitated by flow cytometry. […] Mouse peritoneal macrophages cells were treated with 0.1 ug/ml Wortmannin (WM) or 10 mM 3-methyladenine (3-MA) for 1 hr and with 100 uM zVAD for 24 hrs, after which cell loss were quantitated by flow cytometry.

L929 cells [2] = assay: Transmission electron microscopy morphometric analysis of autophagy in L929 cells; type: cell-based, mouse; settings: for Apoptotic cell / Autophagic and apoptotic features / Autophagic cells(total) / Lytic/necrotic cell / Mild autophagy (cell with 10~19 vacuoles) / Moderate autophagy (cell with 20~29 vacuoles) / Normal cells / Severe Autophagy (cell with 30 or more vacuoles) / Vacuolated(but not autophagic): TEM, of total 100
Protocol: Cells were fixed in 3% glutaraldehyde in 0.1 M MOPS buffer (pH 7.0) for 8 hrs at room temperature, 3% glutaraldehyde/1% paraformaldehyde in 0.1 M MOPS buffer (pH 7.0) for 16 hours at 4° C., post-fixed in 1% osmium tetroxide for 1 hour, embedded in Spurr's resin, sectioned, double stained with Uranyl acetate and Lead citrate, and analyzed using a Zeiss EM 10 transmission electron microscope. For each treatment or control group, at least 100 cells from randomly chosen transmission electron microscopy fields were analyzed for quantification of morphological features. Cells with ≧10 vacuoles were scored as autophagy positive. Cells were stratified as follows: 0 (≦9 vacuoles/cell), 1(10-19 vacuoles/cell), 2 (20-29 vacuoles/cell), 3 (≧30 vacuoles/cell). Scores were ranked and comparisons of treatment to control groups were made using the Mann-Whitney U test using the Statview 5.0.1 program. Statistical analysis of the differences in FIG. 1, panels D, E, F, and G and FIG. 2A, B, D were significant (p<0.0001).
In mouse L929 fibroblastic cells, tumor necrosis factor (TNF), oxidants, ceramide, and radiation can induce caspase-independent death (11). […] L929 cells were treated with 1 ul of dimethyl sulfoxide (DMSO) FIG. 1A (a and c) or 20 uM zVAD (b and d) for 24 hours and examined by phase contrast microscopy (a and b); or 4′,6′-diamidino-2-phenylindole-staining and fluorescent microscopy (c and d). Magnification: 200×. […] The percentage of vaculated cells is the fraction of cells that have 10 or more autophagic vacuoles by TEM. Statistical analysis is shown in FIG. 4 and morphometric analysis of zVAD-induced autophagy in L929 cells is quantitated in Table 1 setforth below.

[3] = tested on: mouse peritoneal macrophages; assay: Cell loss by flow cytometry in mouse peritoneal macrophages; type: cell-based; settings: FIG. 7
Protocol: as §1, §2

[4] = tested on: c-Jun N-terminal kinase (JNK); assay: Detection of phosphorylated JNK/SAPK by Western blot in L929 cells; type: cell-based, mouse; settings: zVAD 24 hrs, 2% FBS, FIG. 2B
Protocol: L929 cells were treated with DMSO or zVAD for 24 hrs in the presence of 2% FBS. The cell lysate was spun for 10 minutes at 13000 rpm. 20 ul of the c-Jun beads (SAPK/JNK assay kit from Cell Signaling) were added to the supernatant and incubated overnight at 4° C. Beads were washed 4 times with lysis buffer and resuspended in 50 ul of 1× sample buffer. Samples were boiled for 5 minutes and analyzed by SDS-PAGE and Western blot for phosphorylated SAP/JNK by probing with phospho-JNK antibody.
Death receptors can elicit nonapoptotic death through the “receptor-interacting protein” (RIP), a death-domain-containing, serine-threonine kinase (6, 7). […] For example, cells were treated with zVAD after transfection with RIP RNAi or nonspecific (NS) oligonucleotides. Reduction in cell number (solid bars) and the fractions of cells with autophagic features based on TEM (open bars) are shown in FIG. 2A. FIG. 2B is a western blot for phospho-JNK (left lane) or total JNK protein (right lane) after zVAD treatment. zVAD activated c-Jun N-terminal kinase (JNK) that is also activated by RIP in response to cytokines.

SMILES: COC(=O)CC(NC(=O)C(C)NC(=O)C(NC(=O)OCc1ccccc1)C(C)C)C(=O)CF (stereo not drawn) [zVAD, Benzyloxycarbonyl-Valyl-Alanyl-Aspartyl-(O-methyl)-fluoromethylketone] (Cbz-Val-Ala-Asp(OMe)-CH2F; configuration not given here)
- Time after which death was complete (L929 cells [1]; 20 uM zVAD, FIG. 1B): 40 h
- Time at which death began after zVAD treatment (L929 cells [1]; 20 uM zVAD, FIG. 1B): 12 h
- Induction of death of L929 cells (L929 cells [1]; 20 uM, 24 hours, microscopy): directly induced the death of L929 cells
- Induction of cell death (% cell loss) (L929 cells [1]; 20 uM, flow cytometry): induced cell death
- RIP cleavage fragments characteristic of caspase-8 activity (RIP): no cleaved fragments were found
- Induction of cell death (RAW264.7 cells; 100 uM zVAD for 48 hrs): induced cell death by the autophagic pathway
- Time course of zVAD induced autophagy (percentage of vacuolated cells, 10 or more autophagic vacuoles by TEM) (L929 cells [2]; FIG. 1D): vacuolated cells accumulated prior to cell death
- Apoptotic cell (L929 cells [2]; zVAD 0 hrs): 0
- Autophagic and apoptotic features (L929 cells [2]; zVAD 0 hrs): 0
- Autophagic cells(total) (L929 cells [2]; zVAD 0 hrs): 0
- Lytic/necrotic cell (L929 cells [2]; zVAD 0 hrs): 0
- Mild autophagy (cell with 10~19 vacuoles) (L929 cells [2]; zVAD 0 hrs): 0
- Moderate autophagy (cell with 20~29 vacuoles) (L929 cells [2]; zVAD 0 hrs): 0
- Normal cells (L929 cells [2]; zVAD 0 hrs): 85
- Severe Autophagy (cell with 30 or more vacuoles) (L929 cells [2]; zVAD 0 hrs): 0
- Vacuolated(but not autophagic) (L929 cells [2]; zVAD 0 hrs): 15
- Apoptotic cell (L929 cells [2]; zVAD 8 hrs): 4
- Autophagic and apoptotic features (L929 cells [2]; zVAD 8 hrs): 1
- Autophagic cells(total) (L929 cells [2]; zVAD 8 hrs): 76
- Lytic/necrotic cell (L929 cells [2]; zVAD 8 hrs): 0
- Mild autophagy (cell with 10~19 vacuoles) (L929 cells [2]; zVAD 8 hrs): 55
- Moderate autophagy (cell with 20~29 vacuoles) (L929 cells [2]; zVAD 8 hrs): 20
- Normal cells (L929 cells [2]; zVAD 8 hrs): 19
- Severe Autophagy (cell with 30 or more vacuoles) (L929 cells [2]; zVAD 8 hrs): 1
- Vacuolated(but not autophagic) (L929 cells [2]; zVAD 8 hrs): 0
- Apoptotic cell (L929 cells [2]; zVAD 12 hrs): 1
- Autophagic and apoptotic features (L929 cells [2]; zVAD 12 hrs): 1
- Autophagic cells(total) (L929 cells [2]; zVAD 12 hrs): 93
- Lytic/necrotic cell (L929 cells [2]; zVAD 12 hrs): 3
- Mild autophagy (cell with 10~19 vacuoles) (L929 cells [2]; zVAD 12 hrs): 24
- Moderate autophagy (cell with 20~29 vacuoles) (L929 cells [2]; zVAD 12 hrs): 59
- Normal cells (L929 cells [2]; zVAD 12 hrs): 2
- Severe Autophagy (cell with 30 or more vacuoles) (L929 cells [2]; zVAD 12 hrs): 10
- Vacuolated(but not autophagic) (L929 cells [2]; zVAD 12 hrs): 0
- Induction of cell death ([3]; 100 uM zVAD for 24 hrs): induced cell death by the autophagic pathway
- Activation of JNK (phospho-JNK Western blot) [4]: activated

SMILES: O=C1c2ccccc2-c2n[nH]c3cccc1c23 [JNK inhibitor II, Anthra[1,9-cd]pyrazol-6 (2H)-one 1,9-pyrazoloanthrone]
- Effect on zVAD-induced cell death (% cell loss) (L929 cells [1]; 1 ug/ml inhibitor for 1 hour, then 20 uM zVAD for 40 hours, flow cytometry, FIG. 8): blocked zVAD-induced cell death

SMILES: Cn1cnc(N)c2ncnc1-2 [3-MA, 3-methyladenine]
- Effect on zVAD-induced cell loss (L929 cells [1]; WM 0.1 ug/ml or 3-MA 10 mM for 1 hour, then 20 uM zVAD for 36 hours, FIG. 1E): reduction in cell loss
- Effect on zVAD-induced cell death (RAW264.7 cells; 0.1 ug/ml WM or 10 mM 3-MA for 1 hr, then 100 uM zVAD for 48 hrs): arrested zVAD-induced cell death
- Effect on zVAD-induced cell death ([3]; 0.1 ug/ml WM or 10 mM 3-MA for 1 hr, then 100 uM zVAD for 24 hrs): arrested zVAD-induced cell death

SMILES: C[C@@H]1C[C@@H]([C@H](O)CC2CC(=O)NC(=O)C2)C(=O)[C@@H](C)C1 [cycloheximide, Cycloheximide]
- Effect of protein synthesis inhibition on zVAD-induced cell death (L929 cells [1]; FIG. 2C): blocked cell death

SMILES: COC(=O)CC(NC(=O)C(C)NC(=O)C(C)NC(=O)OCc1ccccc1)C(=O)CCl (stereo not drawn) [ZAAD, benzyloxycarbonyl-Alanyl-Alanyl-Aspartyl-(O-methyl)-chloromethylketone] (Cbz-Ala-Ala-Asp(OMe)-CH2Cl; configuration not given here)
- Induction of cell death (% cell loss) (L929 cells [1]; 20 uM, flow cytometry): no ability to induce cell death

SMILES: COC(=O)CCC(NC(=O)C(CC(=O)OC)NC(=O)OCc1ccccc1)C(=O)NC(C(=O)NC(CC(=O)OC)C(=O)CF)C(C)C (stereo not shown) [DEVD, benzyloxycarbonyl-Aspartyl-(O-methyl)-Glutamyl-(O-methyl)-Valyl-Aspartyl-(O-methyl)-fluoromethylketone]
- Induction of cell death (% cell loss) (L929 cells [1]; 20 uM, flow cytometry): no ability to induce cell death
